Results published in ChEMBL document CHEMBL3091278 (Bioorg Med Chem Lett, 2013).
pKi: −log10 of the molar value.

test: Inhibition of Clostridium perfringens carbonic anhydrase preincubated for 15 mins by stopped flow CO2 hydration assay

| SMILES | pKi |
| --- | --- |
| CC(=O)Nc1nnc(S(N)(=O)=O)s1 [ACETAZOLAMIDE] | 7.31 |
| CCN(CC)C(=S)S [DITIOCARB SODIUM] | 3.44 |
| O=[As](O)(O)c1ccccc1 [PHENYLARSONIC ACID] | 5.15 |
| OB(O)c1ccccc1 [PHENYLBORONIC ACID] | 4.12 |
| [N-]=[N+]=[N-] [SODIUM AZIDE] | 2.38 |
| O=C([O-])O.[Na+] [SODIUM BICARBONATE] | 2.68 |
| O=S([O-])O.[Na+] [SODIUM BISULFITE] | 2.31 |
| [Br-].[Na+] [SODIUM BROMIDE] | 1.67 |
| O=C([O-])[O-].[Na+].[Na+] [SODIUM CARBONATE] | 3.19 |
| S=C(S)S [SODIUM CARBONOTRITHIOATE] | 3.00 |
| [Cl-].[Na+] [SODIUM CHLORIDE] | 2.37 |
| [F-].[Na+] [SODIUM FLUORIDE] | 2.32 |
| S [SODIUM HYDROSULFIDE] | 2.40 |
| O=S(=O)(O)ONOS(=O)(=O)O [SODIUM IMINODISULFATE] | 2.31 |
| [I-].[Na+] [SODIUM IODIDE] | 1.20 |
| N=C=S [SODIUM ISOTHIOCYANATE] | 3.08 |
| O=[N+]([O-])[O-].[Na+] [SODIUM NITRATE] | 2.34 |
| O=NO [SODIUM NITRITE] | 2.39 |
| [O-][Cl+3]([O-])([O-])O [SODIUM PERCHLORATE] | < 0.70 |
| O=S(=O)(O)OOS(=O)(=O)O [SODIUM PERSULFATE] | 2.04 |
| O=P(O)(O)OP(=O)(O)O [SODIUM PYROPHOSPHATE] | 2.57 |
| O=[Se](=O)(O)O [SODIUM SELENATE] | 3.33 |
| O=S(=O)([O-])[O-].[Na+].[Na+] [SODIUM SULFATE ANHYDROUS] | 2.10 |
| O=[Te](=O)(O)O [SODIUM TELLURATE] | 2.48 |
| O=BOB(O)OB(O)OB=O [SODIUM TETRABORATE] | 2.60 |
| F[B-](F)(F)F.[Na+] [SODIUM TETRAFLUOROBORATE] | < 0.70 |
| NS(=O)(=O)O [SULFAMATE] | 5.05 |
